Here are results for 4 compounds from patent US20240408222A1, “COMPOUNDS, PHARMACEUTICAL COMPOSITIONS, AND METHODS FOR THE TREATMENT, PREVENTION, OR MANAGEMENT OF HYPERPRO[…]” (VINCERX PHARMA GMBH, priority 2021, published 2024).

Structures are written as SMILES. A value given as a limit tells only on which side of the number the result lay.

Holding throughout (experiment): Cytotoxicity assay (Version 2, automated, AC50) with/without neutrophil elastase
Common to all, as to settings: Version 2, activity concentration at −50%

In one experiment the test system is 786-O. In kind it is cell-based, human. As to the method: (§1) Cultivation of cells was performed according to standard procedures with the media recommended by the provider. The cells, in a total volume of 100 μL, were seeded in a 96-well plate with a white bottom (#3610). After a 24 h incubation period at 37° C. and […], the medium was exchanged by adding 90 μL fresh medium. The treatment started by adding the test compound in 10 μL of culture medium to the cells in triplicates. Concentrations ranging from 10^−5 M to 10^−13 M were chosen. Two identically treated sets of samples were prepared. One set was treated with the test compound alone, whereas to the second set the compound and 10 nM elastase was added followed by a 72 h incubation period at 37° C. and […]. The proliferation was detected using the MTT assay (ATCC). At the end of the incubation period the MTT reagent was added to all samples for 4 h. Lysis of the cells followed by addition of the detergent was done overnight. The formed dye was detected at 570 nm. The proliferation of untreated but otherwise identically handled cells was define as the 100% value.
(§2) The cytotoxicity assay (Version 2) was performed as described above. Some changes were applied as the assays were performed in an automated fashion and the IC50 values determination was changed. Here the change in metabolic activity of the cells, in percent, was calculated by normalization of the measured values to the absorbance values of medium containing wells without cells (═−100%) and the absorbance of the DMSO-treated cells (═0%). AC50 values (activity concentration at −50%) were determined by means of a 4 parameter Hill-fit using GeneData Screener software.

For a further experiment, the system named is HT29. The format is cell-based, human. As to the method: as §1, §2
The test system of the next experiment is NCI H292. In kind it is cell-based, human. As to the method:
as §1, §2

For another experiment, the system named is SUM149. In kind it is cell-based. As to the method: as §1, §2
The mark [1] stands for this setting: without (−) neutrophil elastase.
Where [2] appears, read: HT29, with (+) neutrophil elastase.
Where [3] appears, read: HT29, without (−) neutrophil elastase.
[4] abbreviates: NCI H292, with (+) neutrophil elastase.
Where [5] appears, read: NCI H292, without (−) neutrophil elastase.
[6] abbreviates: SUM149, with (+) neutrophil elastase.
[7] abbreviates: SUM149, without (−) neutrophil elastase.

The AC50 is the concentration at which the activity in the assay is half-maximal. A low value points to activity at low concentration. `CCCNC(=O)Nc1cccc(S(=O)(=O)Nc2cccc([C@@H](CC(=O)O)NC(=O)Nc3ccc(NC(=O)NCCN(C)CCN(C)CCN(C)CC(=O)N[C@@H](CC(N)=O)C(=O)N4CCC[C@H]4C(=O)N[C@H](C(=O)N=S(C)(=O)Cc4cc5nc(c4)OCCCOc4cc(F)ccc4-c4cc(ncc4F)N5)C(C)C)cc3)c2)c1` (mixture of isomers) [Compound 22]: the AC50 in the experiment on 786-O (with (+) neutrophil elastase) is at most 10 nM; in the experiment with 786-O (setting [1]), 100 to 1000 nM; in the experiment with HT29 (setting [2]) it was at most 10 nM; in the experiment on HT29 (setting [3]) it was 100 to 1000 nM; in the experiment with NCI H292 (setting [4]), at most 10 nM; in the experiment on NCI H292 (setting [5]), 100 to 1000 nM. Also, the concentration at half-maximal activity (AC50) in the experiment with SUM149 (setting [6]) is at most 10 nM; in the experiment with SUM149 (setting [7]) it was 100 to 1000 nM.
Take `CCCNC(=O)Nc1cccc(S(=O)(=O)Nc2cccc([C@H](CC(=O)O)NC(=O)Nc3ccc(NC(=O)NCCN(C)CCN(C)CCN(C)CC(=O)N[C@@H](CC(N)=O)C(=O)N4CCC[C@H]4C(=O)N[C@H](C(=O)N=S(C)(=O)Cc4cc5nc(c4)OCCCOc4cc(F)ccc4-c4cc(ncc4F)N5)C(C)C)cc3)c2)c1` (mixture of isomers) [Compound 23]: the half-maximal activity concentration (AC50) with 786-O (with (+) neutrophil elastase) was at most 10 nM; in the experiment on 786-O (setting [1]) it was 100 to 1000 nM; in the experiment on HT29 (setting [2]), at most 10 nM; with HT29 (setting [3]) it was 100 to 1000 nM; in the experiment on NCI H292 (setting [4]) it was at most 10 nM; in the experiment with NCI H292 (setting [5]), 100 to 1000 nM. The AC50 is at most 10 nM in the experiment on SUM149 (setting [6]) and 100 to 1000 nM in the experiment with SUM149 (setting [7]).
On to `CCCNC(=O)Nc1cccc(S(=O)(=O)Nc2cccc([C@@H](CC(=O)O)NC(=O)Nc3ccc(NC(=O)NCCOCCOCCOCCC(=O)N[C@@H](CC(=O)O)C(=O)N4CCC[C@H]4C(=O)N[C@H](C(=O)N=[S@@](C)(=O)Cc4cc5nc(c4)OCCCOc4cc(F)ccc4-c4cc(ncc4F)N5)C(C)C)cc3)c2)c1` (racemic) [Compound 37, N-(14-{4-[({(1R)-2-carboxy-1-[3-({3-[(propylcarbamoyl)amino]benzene-1-sulfonyl}amino)phenyl]ethyl}carbamoyl)amino]anilino}-14-oxo-4,7,10-trioxa-13-azatetradecanan-1-oyl)-L-alpha-aspartyl-L-prolyl-N—[(RS)—{[15,19-difluoro-3,4-dihydro-2H,11H-10,6-(azeno)-12,16-(metheno)-1,5,11,13-benzodioxadiazacyclooctadecin-8-yl]methyl}(methyl)oxo-lambda^6-sulfanylidene]-L-valinamide], for which the AC50 is at most 10 nM in the experiment on 786-O (with (+) neutrophil elastase); 100 to 1000 nM in the experiment on 786-O (setting [1]); at most 10 nM in the experiment on HT29 (setting [2]); 100 to 1000 nM with HT29 (setting [3]); at most 10 nM in the experiment on NCI H292 (setting [4]); 100 to 1000 nM in the experiment on NCI H292 (setting [5]). In addition, the AC50 with SUM149 (setting [6]) was at most 10 nM; in the experiment on SUM149 (setting [7]), 100 to 1000 nM.
On to `CCCNC(=O)Nc1cccc(S(=O)(=O)Nc2cccc([C@@H](CC(=O)O)NC(=O)Nc3ccc(NC(=O)NCCOCCOCCOCCC(=O)NCCCC[C@H](NC(=O)CCOCCOCCOCCNC(=O)Nc4ccc(NC(=O)N[C@H](CC(=O)O)c5cccc(NS(=O)(=O)c6cccc(NC(=O)NCCC)c6)c5)cc4)C(=O)NCCN(C)CCN(C)CCN(C)CC(=O)N[C@@H](CC(N)=O)C(=O)N4CCC[C@H]4C(=O)N[C@H](C(=O)N=[S@@](C)(=O)Cc4cc5cc(c4)O[C@@H](C)CCOc4cc(F)ccc4-c4nc(ncc4F)N5)C(C)C)cc3)c2)c1` (relative stereo) [Compound 28], for which the AC50 is at most 10 nM in the experiment with 786-O (with (+) neutrophil elastase); over 1000 nM in the experiment with 786-O (setting [1]); at most 10 nM in the experiment on HT29 (setting [2]); 100 to 1000 nM in the experiment with HT29 (setting [3]); at most 10 nM with NCI H292 (setting [4]); 100 to 1000 nM in the experiment on NCI H292 (setting [5]). The values for the AC50 in the experiment on SUM149 (setting [6]) and in the experiment with SUM149 (setting [7]) were at most 10 nM and 100 to 1000 nM, respectively.
